Data reported in publication PMC6270420, “Antibacterial Activity of Salicylanilide 4-(Trifluoromethyl)benzoates” (Molecules, 2013).
Converted amounts (≈) assume the structure as drawn. Like-named read-outs stand apart in the source and are kept apart here.

Assays:
[1] = biological target: T1, mycobacterial isocitrate lyase (ICL1, Rv0467) (Mycobacterium tuberculosis, UniProt P9WKK7); assay: Isocitrate lyase inhibition assay (ICL1); assay type: biochemical, Mycobacterium tuberculosis H37Rv; conditions: 10 μmol/L; read-out: % ICL inhibition at 10 μmol/L (± standard deviation)
T1 construct: His tag (from pET-28b(+)); made in house; host or cells: E. coli BL21(DE3), pET-28b(+) plasmid
T1 sequence (P9WKK7 1-428): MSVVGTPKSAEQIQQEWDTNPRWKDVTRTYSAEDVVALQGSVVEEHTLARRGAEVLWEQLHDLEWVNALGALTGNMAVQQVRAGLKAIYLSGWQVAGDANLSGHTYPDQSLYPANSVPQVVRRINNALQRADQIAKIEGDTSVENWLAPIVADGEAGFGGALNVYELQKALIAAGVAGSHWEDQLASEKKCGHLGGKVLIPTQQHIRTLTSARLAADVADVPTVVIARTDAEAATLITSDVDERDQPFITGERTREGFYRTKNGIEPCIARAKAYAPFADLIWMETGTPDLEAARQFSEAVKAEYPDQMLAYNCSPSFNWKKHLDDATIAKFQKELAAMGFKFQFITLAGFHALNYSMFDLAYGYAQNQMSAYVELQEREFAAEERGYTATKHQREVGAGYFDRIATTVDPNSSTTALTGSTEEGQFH

[2] = test system: Mycobacterium kansasii 235/80; assay: Antimycobacterial MIC micromethod; assay type: cell-based; conditions: read-out: MIC M. kansasii 235/80
[3] = test system: Gram-positive cocci including MRSA; assay: Antibacterial microdilution, summary for Gram-positive cocci; assay type: cell-based; conditions: Staphylococcus aureus, read-out: MICs against Gram-positive cocci
Experimental: (§1) The in vitro antibacterial activity was assayed against eight Gram-positive and Gram-negative strains: Staphylococcus aureus CCM 4516/08, methicillin-resistant Staphylococcus aureus H 5996/08 (MRSA), Staphylococcus epidermidis H 6966/08, Enterococcus sp. J 14365/08; Escherichia coli CCM 4517, Klebsiella pneumoniae D 11750/08, ESBL-positive Klebsiella pneumoniae J 14368/08, and Pseudomonas aeruginosa CCM 1961.
(§2) The microdilution broth method modified according to standard M07-A07 in Mueller-Hinton broth (HiMedia Laboratories, Mumbai, India) adjusted to pH 7.4 (±0.2) was used. The tested compounds were dissolved in DMSO to the final concentrations ranging from […]. Benzylpenicillin (penicillin G) was used as a comparative drug. Bacterial inoculum in sterile water was prepared to match 0.5 McFarland scale ([…]). The minimum inhibitory concentrations were assayed as 90% (IC90) or higher reduction of growth when compared to the control. The determination of results was performed visually and spectrophotometrically (at 540 nm). The values of MICs were determined after 24 and 48 h of incubation in the darkness at 35 °C (±0.1) in a humid atmosphere.

[4] = test system: Escherichia coli CCM 4517; assay: Antibacterial microdilution broth method; assay type: cell-based
Experimental: as §1, §2

[5] = test system: Enterococcus sp. J 14365/08; assay: Antibacterial microdilution broth method; assay type: cell-based; conditions: read-out: MIC/IC90 Enterococcus sp. J 14365/08
Experimental: as §1, §2

[6] = test system: methicillin-resistant Staphylococcus aureus H 5996/08 (MRSA); assay: Antibacterial microdilution broth method; assay type: cell-based; conditions: read-out: MIC/IC90 MRSA H 5996/08
Experimental: as §1, §2

[7] = test system: Staphylococcus epidermidis H 6966/08; assay: Antibacterial microdilution broth method; assay type: cell-based; conditions: read-out: MIC/IC90 S. epidermidis H 6966/08
Experimental: as §1, §2

[8] = test system: Staphylococcus aureus CCM 4516/08; assay: Antibacterial microdilution broth method; assay type: cell-based; conditions: read-out: MIC/IC90 S. aureus CCM 4516/08
Experimental: as §1, §2

HepG2 cells = assay: Cytotoxicity evaluation (CellTiter 96 MTS); assay type: cell-based, human; conditions: Homo sapiens, read-out: IC50 HepG2
Experimental: Seven esters and their parent salicylanilides with the most robust antimicrobial activity were tested for cytotoxicity in the human hepatocellular liver carcinoma cell line HepG2 (passages 21–24; ECACC, Salisbury, UK) using a standard colorimetric method measuring a tetrazolium salt reduction (CellTiter(R) 96 AQueous One Solution Assay, Promega G3580, Madison, WI, USA).
The cells were routinely cultured in Minimum Essentials Eagle Medium (Sigma-Aldrich, Darmstadt, Germany) supplemented with 10% foetal bovine serum (PAA; Biotech, Prague, Czech Republic), 1% of L-glutamine solution (Sigma-Aldrich), and non-essential amino acids solution (Sigma-Aldrich) in a humidified atmosphere containing 5% CO2 at 37 °C. For subculturing, the cells were harvested after trypsin/EDTA (Sigma-Aldrich) treatment at 37 °C. The cells treated with the tested substances were used as experimental groups. Untreated HepG2 cells were used as control groups.
The cells were seeded in density 1 × 10^4 cells per well in a 96-well plate with microscopic control. Next day, the cells were treated with each of the tested substances. […] The most of the tested compounds were prepared in incubation concentrations of 0.01–20 µM in triplicates. 4-(Trifluoromethyl)benzoic acid was applied in the concentrations of 10–4,000 µM in triplicates. The following types of controls were included: determination of 100% viability and 0% viability (the cells treated by 10% DMSO), no cell control and vehiculum controls. These checking samples were prepared in triplicates.
The treated cells were incubated together with controls at 37 °C for 24 h in 5% CO2 atmosphere. After this time reagent from the kit CellTiter 96 AQueous One Solution Cell Proliferation Assay was added. The CellTiter 96 assay is based on the reduction of tetrazolium salt MTS [3-(4,5-dimethylthiazol-2-yl)-5-(3-carboxymethoxyphenyl)-2-(4-sulfophenyl)-2H-tetrazolium] to water-soluble formazan dye by metabolically active cells. The reduction of the reagent is attributed to availability of NADH or NADPH. The decline in levels of these metabolically important compounds in the cell causes that the production of formazan is reduced. The tested plate was incubated for 2 h at 37 °C and 5% CO2 and after this time, the absorbance was recorded at 490 nm using a 96-well plate reader (TECAN, Infinite M200, Grödig, Austria).
The results were expressed as inhibitory concentration which is necessary to inhibit cell viability to 50% from the maximal (control) viability (IC50). A standard toxicological parameter IC50 was calculated in each of the tested substances using GraphPad Prism software (version 5.02; GraphPad Software Inc., San Diego, CA, USA).

[9] = test system: Mycobacterium avium 330/88; assay: Antimycobacterial MIC micromethod; assay type: cell-based
[10] = test system: Mycobacterium tuberculosis 331/88 (H37Rv); assay: Antimycobacterial MIC micromethod, Šula's medium; assay type: cell-based
[11] = test system: M. kansasii 6509/96 (clinically isolated strain); assay: Antimycobacterial MIC micromethod; assay type: cell-based; conditions: Mycobacterium kansasii, read-out: MIC M. kansasii 6509/96
Mtb. 9449/2006 = assay: microbe, parasite or virus in culture; assay type: cell-based; conditions: Mycobacterium tuberculosis, read-out: MIC Mtb. 9449/2006
[12] = test system: Mycobacterium tuberculosis, M. avium and M. kansasii; assay: Antimycobacterial MIC, summary over all mycobacterial strains; assay type: cell-based; conditions: range over all strains and times; read-out: MICs against all mycobacterial strains
Mtb. 234/2005 = assay: microbe, parasite or virus in culture; assay type: cell-based; conditions: Mycobacterium tuberculosis, read-out: MIC Mtb. 234/2005
Mtb. 53/2009 = assay: microbe, parasite or virus in culture; assay type: cell-based; conditions: Mycobacterium tuberculosis, read-out: MIC Mtb. 53/2009
Mtb. Praha 1 = assay: microbe, parasite or virus in culture; assay type: cell-based; conditions: Mycobacterium tuberculosis, read-out: MIC Mtb. Praha 1
Mtb. 7357/1988 = assay: microbe, parasite or virus in culture; assay type: cell-based; conditions: Mycobacterium tuberculosis, read-out: MIC Mtb. 7357/1988
Mtb. Praha 131 (XDR-TB) = assay: microbe, parasite or virus in culture; assay type: cell-based; conditions: Mycobacterium tuberculosis, read-out: MIC Mtb. Praha 131 (XDR-TB)
[13] = 336 h, 14 d, read-out: MIC Mtb. 331/88
[14] = 504 h, 21 d, read-out: MIC Mtb. 331/88

O=C(Oc1cc(Cl)ccc1C(=O)Nc1ccc(C(F)(F)F)cc1)c1ccc(C(F)(F)F)cc1 [1p]
inhibition at 10 µM [1]: 17 ± 2.3% | MIC ([2]; 235/80, 168 h, 7 d): 2 µM (≈ 0.976 µg/mL) | MIC ([2]; 235/80, 336 h, 14 d): 2 µM (≈ 0.976 µg/mL) | MIC ([2]; 235/80, 504 h, 21 d): 4 µM (≈ 1.95 µg/mL) | MIC [3]: < 1 µM | MIC ([4]; CCM4517, 24 h, read-out: MIC/IC90 E. coli CCM 4517): 31.2 µM (≈ 15.2 µg/mL) | MIC ([4]; CCM4517, 48 h, read-out: MIC/IC90 E. coli CCM 4517): 250 µM (≈ 122 µg/mL) | MIC ([4]; CCM4517, time not stated, read-out: MIC E. coli (partial susceptibility)): 31.2 µM (≈ 15.2 µg/mL) | MIC ([5]; SP.J14365/08, 24 h): 0.49 µM (≈ 0.239 µg/mL) | MIC ([5]; SP.J14365/08, 48 h): 3.9 µM (≈ 1.9 µg/mL) | MIC ([6]; 24 h): 0.49 µM (≈ 0.239 µg/mL) | MIC ([6]; 48 h): 0.98 µM (≈ 0.478 µg/mL) | MIC ([7]; H6966/08, 24 h): 0.49 µM (≈ 0.239 µg/mL) | MIC ([7]; H6966/08, 48 h): 0.98 µM (≈ 0.478 µg/mL) | MIC ([8]; CCM4516, 24 h): 0.49 µM (≈ 0.239 µg/mL) | MIC ([8]; CCM4516, 48 h): 0.98 µM (≈ 0.478 µg/mL) | IC50 (HepG2 cells; HepG2, 24 h, cytotoxicity): 1770 nM | MIC ([9]; 330/88, 336 h, 14 d): 2 µM (≈ 0.976 µg/mL) | MIC ([9]; 330/88, 504 h, 21 d): 8 µM (≈ 3.9 µg/mL) | MIC [10, 13]: 2 µM (≈ 0.976 µg/mL) | MIC [10, 14]: 2 µM (≈ 0.976 µg/mL) | MIC ([11]; 168 h, 7 d): 1 µM (≈ 0.488 µg/mL) | MIC ([11]; 336 h, 14 d): 4 µM (≈ 1.95 µg/mL) | MIC ([11]; 504 h, 21 d): 4 µM (≈ 1.95 µg/mL)

O=C(Oc1ccc(Br)cc1C(=O)Nc1ccc(C(F)(F)F)cc1)c1ccc(C(F)(F)F)cc1 [1r]
inhibition at 10 µM [1]: ≥ 20% | MIC (Mtb. 9449/2006; 336 h): 1 µM (≈ 0.532 µg/mL) | MIC (Mtb. 9449/2006; 504 h): 1 µM (≈ 0.532 µg/mL) | MIC ([2]; 235/80, 168 h, 7 d): 1 µM (≈ 0.532 µg/mL) | MIC ([2]; 235/80, 336 h, 14 d): 2 µM (≈ 1.06 µg/mL) | MIC ([2]; 235/80, 504 h, 21 d): 4 µM (≈ 2.13 µg/mL) | MIC [12]: 1 to 4 µM (≈ 0.532 to 2.13 µg/mL) | MIC (Mtb. 234/2005; 336 h): 0.5 µM (≈ 0.266 µg/mL) | MIC (Mtb. 234/2005; 504 h): 1 µM (≈ 0.532 µg/mL) | MIC (Mtb. 53/2009; 336 h): 1 µM (≈ 0.532 µg/mL) | MIC (Mtb. 53/2009; 504 h): 2 µM (≈ 1.06 µg/mL) | IC50 (HepG2 cells; HepG2, 24 h): 2030 nM | MIC ([9]; 330/88, 336 h, 14 d): 2 µM (≈ 1.06 µg/mL) | MIC ([9]; 330/88, 504 h, 21 d): 4 µM (≈ 2.13 µg/mL) | MIC (Mtb. Praha 1; 336 h): 0.5 µM (≈ 0.266 µg/mL) | MIC (Mtb. Praha 1; 504 h): 1 µM (≈ 0.532 µg/mL) | MIC (Mtb. 7357/1988; 336 h): 1 µM (≈ 0.532 µg/mL) | MIC (Mtb. 7357/1988; 504 h): 1 µM (≈ 0.532 µg/mL) | MIC [10, 13]: 1 µM (≈ 0.532 µg/mL) | MIC [10, 14]: 1 µM (≈ 0.532 µg/mL) | MIC ([10]; time not stated, read-out: MIC against M. tuberculosis): 1 µM (≈ 0.532 µg/mL) | MIC ([11]; 168 h, 7 d): 1 µM (≈ 0.532 µg/mL) | MIC ([11]; 336 h, 14 d): 2 µM (≈ 1.06 µg/mL) | MIC ([11]; 504 h, 21 d): 4 µM (≈ 2.13 µg/mL) | MIC (Mtb. Praha 131 (XDR-TB); 336 h): 0.5 µM (≈ 0.266 µg/mL) | MIC (Mtb. Praha 131 (XDR-TB); 504 h): 1 µM (≈ 0.532 µg/mL)
